Literature values, collected in US7528137B2, “Compounds, compositions, and methods” (Cytokinetics, Inc., priority 2002, dated 2009).

Tested on: A549 cells
Settings: data provided by National Cancer Institute, Developmental Therapeutic Program

Structure (SMILES) | GI50
O=c1[nH]cc(F)c(=O)[nH]1 [5-fluorouracil] | 1000 nM
COc1cccc2c1C(=O)c1c(O)c3c(c(O)c1C2=O)C[C@@](O)(C(=O)CO)C[C@@H]3O[C@H]1C[C@H](N)[C@H](O)[C@H](C)O1 [doxorubicin] | 63 nM
NC(=O)NO [hydroxyurea] | 500000 nM
CC(=O)O[C@H]1C(=O)[C@@]2(C)[C@H]([C@H](OC(=O)c3ccccc3)[C@]3(O)C[C@H](OC(=O)[C@H](O)[C@@H](NC(=O)c4ccccc4)c4ccccc4)C(C)=C1C3(C)C)[C@]1(OC(C)=O)CO[C@@H]1C[C@@H]2O [paclitaxel] | 4 nM
